Results on 8 compounds are retold here after article PMC7522794, “Synthesis and evaluation of novel 2,4-disubstituted arylthiazoles against T. brucei” (RSC Medicinal Chemistry, 2019).

Where only a bound is given, the exact number is not on record here.

For data set [1], the system named is Bloodstream form T. brucei (strain 427). As to the kind of experiment: Trypanocidal activity against bloodstream form T. brucei (Alamar Blue growth inhibition). It is filed as cell-based, Trypanosoma brucei. The note with it: Trypanosoma brucei, 48 hours + overnight Alamar Blue; for IC50: concentration that inhibits growth by 50%; for IC90: concentration that inhibits growth by 90%. Here is the method: Bloodstream form T. brucei (strain 427) were cultured at 37 °C in modified Iscove's medium. Trypanocidal activity was assessed by growing parasites in microtiter plates in the presence of various drug concentrations. […] The plates were incubated for 48 hours at 37 °C and 20 μL Alamar Blue was then added to each well. After an additional overnight incubation, the fluorescence was determined. Inhibition of growth was calculated by comparison with control values and IC50 and IC90 values were determined in triplicate using linear regression analysis.

Data set [2] is described as follows: Cytotoxic activity against rat skeletal myoblast L6 cells (Alamar Blue). It is filed as cell-based. The note with it: rat, L6 cells (rat skeletal muscle line); cytotoxicity, 6 days incubation + 8 hours Alamar Blue. How it is done:
(§1) Cytotoxicity against mammalian cells was assessed using microtitre plates. Briefly, L6 cells (a rat skeletal muscle line) were seeded at 1 × 10^4 mL^–1 in 200 μL of growth medium containing 7 different compound concentrations in a range previously established to encompass both the IC50 and IC90 values. The plates were incubated for 6 days at 37 °C and 20 μL Alamar Blue (Biosource UK Ltd) was then added to each well. After an additional 8 hours incubation, the fluorescence was determined using a FLUOstar Omega fluorescent plate reader (BMG Labtech). Inhibition of growth was calculated by comparison with control values and IC50 and IC90 values were determined in triplicate using linear regression analysis.
On the technique in general: Resazurin is reduced to fluorescent resorufin, in cell work by metabolically active cells.

For the next data set, the system named is L6 cells. The data set is described as above. It is filed as cell-based. The settings on record: ratio of IC50 values obtained with L6 cells and T. brucei. How it is done:
as §1

In the case of `O=C(NCCc1csc(-c2ccc(F)c(C34CC5CC(CC(C5)C3)C4)c2)n1)N1CCCCC1` [Compound 1j, N-{2-[2-(3-(1-Tricyclo[3.3.1.1^3,7]decyl)-4-fluorophenyl)thiazol-4-yl}ethyl)piperidine-1-yl-carboxamide], in data set [1], the IC50 was found to be 10700 ± 300 nM and the IC90 is 12600 ± 200 nM. Further, in data set [2], the IC50 is < 10300 nM. The “S.I. (selectivity index)” value in the data set with L6 cells is given as <1.

For `NCCc1csc(-c2ccc(F)c(C34CC5CC(CC(C5)C3)C4)c2)n1` [Compound 1a, 2-{2-[3-(1-Tricyclo[3.3.1.1^3,7]decyl)-4-fluorophenyl]thiazol-4-yl}ethan-1-amine], the IC50 amounted to 420 ± 10 nM in data set [1] and 1050 ± 230 nM in data set [2]. Further, the IC90 in data set [1] stood at 560 ± 10 nM. Besides, the “S.I. (selectivity index)” value in the data set with L6 cells worked out at 2.5.

With `Br.Nc1nc(-c2ccc(C34CC5CC(CC(C5)C3)C4)cc2)cs1` [Compound 3a, 4-[4-(1-Tricyclo[3.3.1.1^3,7]decyl)phenyl]thiazol-2-amine hydrobromide], the melting point is 345 °C (dec.). Besides, in data set [1], the IC50 is 22500 ± 600 nM and the IC90 turned out to be 30500 ± 4500 nM. For the same compound, the IC50 in data set [2] was 13800 ± 1600 nM. Further, in the data set on L6 cells, the “S.I. (selectivity index)” value is given as <1.

Turning to `Br.NCCc1nc(-c2ccc(C34CC5CC(CC(C5)C3)C4)cc2)cs1` [Compound 3c, 2-{4-[4-(1-Tricyclo[3.3.1.1^3,7]decyl)phenyl]thiazol-2-yl}ethanamine hydrobromide], the melting point lay within 261 to 263 °C. Further, in data set [1], the IC50 was determined as 2740 ± 290 nM and the IC90 was 4400 ± 70 nM. Also, the IC50 in data set [2] was 4160 ± 240 nM. Moreover, the “S.I. (selectivity index)” value in the data set with L6 cells stood at 1.5.

As to `CNCCc1csc(-c2ccc(C34CC5CC(CC(C5)C3)C4)cc2)n1` [Compound 2b, 2-{2-[4-(1-Tricyclo[3.3.1.1^3,7]decyl)phenyl]thiazol-4-yl}-N-methylethan-1-amine], the IC50 was determined as 590 ± 20 nM in data set [1] and 960 ± 260 nM in data set [2]. The IC90 in data set [1] stood at 790 ± 10 nM. Also, in the data set with L6 cells, the “S.I. (selectivity index)” value came to 1.6.

The compound `Br.CN(C)CCc1nc(-c2ccc(C34CC5CC(CC(C5)C3)C4)cc2)cs1` [Compound 3d, 2-{4-[4-(1-Tricyclo[3.3.1.1^3,7]decyl)phenyl]thiazol-2-yl}-N,N-dimethylethan-1-amine dihydrochloride] had a melting point of 200 to 202 °C. Further, the IC50 in data set [2] came to 3190 ± 250 nM. Further, the “S.I. (selectivity index)” value in the data set with L6 cells was 2.3.

On to `CN(C)CCc1csc(-c2ccc(F)c(C34CC5CC(CC(C5)C3)C4)c2)n1` [Compound 1c, 2-{2-[3-(1-Tricyclo[3.3.1.1^3,7]decyl)-4-fluorophenyl]thiazol-4-yl}-N,N-dimethylethyl-1-amine], for which, in data set [1], the IC50 stood at 790 ± 20 nM and the IC90 was 1030 ± 10 nM. Besides, in data set [2], the IC50 came out at 1530 ± 90 nM. Further, the “S.I. (selectivity index)” value in the data set on L6 cells stood at 1.9.

Turning to `CNCCc1csc(-c2ccc(F)c(C34CC5CC(CC(C5)C3)C4)c2)n1` [Compound 1b, 2-{2-[3-(1-Tricyclo[3.3.1.1^3,7]decyl)-4-fluorophenyl]thiazol-4-yl}-N-methylethan-1-amine], in data set [1], the IC50 is 900 ± 10 nM and the IC90 was determined as 1100 ± 10 nM. The IC50 in data set [2] was 2010 ± 320 nM. In addition, the “S.I. (selectivity index)” value in the data set on L6 cells is on record as 2.2.

The IC50 is the concentration that inhibits the measured activity by half. What is called IC90 is the point of the concentration-response curve where the effect stands at 90%. As a reminder, the melting point is the temperature, or range, at which the solid turns liquid.
